Experimental data published in ChEMBL document CHEMBL6134829, “Targeting cysteine protease B to discover antileishmanial drugs: Directions and advances” (Eur J Med Chem, 2025).
Values after ≈ are worked out from the molar mass of the structure shown. *1 amine or outer side, *2 acyl side, *3 side chain or, on linkers, in order; H or OH if unused. Where a SMILES comes first, the peptide text is derived from it. [ ]: non-standard residue; d: D form. X1 = O=C1CC2C(=O)N(CCN[*:1])C(=O)C2C(c2ccc(C(=O)[*:2])cc2)C1; X2 = O=C1CC2C(=O)N(CCN[*:1])C(=O)C2C(C(=O)[*:2])C1; Cha = N[C@@H](CC1CCCCC1)C(=O)O

Assays:
[1] = Inhibition of Leishmania mexicana CPB2.8
[2] = test system: Leishmania donovani; assay: Antileishmanial activity against Leishmania donovani MHOM/IN/1983/AG83 axenic amastigotes assessed as inhibition of growth at 10 uM relative to control; format: functional; parameters: scale not given: the % may be the effect or the level left
[3] = Inhibition of Leishmania donovani cysteine protease
[4] = Binding affinity to Leishmania mexicana CPB2.8 assessed as inhibition constant
[5] = test system: Leishmania major; assay: Antileishmanial activity against Leishmania major promastigotes MHOM/IL/81/FE/BN; format: functional, organism-based
[6] = test system: Leishmania amazonensis; assay: Antileishmanial activity against Leishmania amazonensis promastigotes assessed as inhibition of parasite growth; format: functional, organism-based
[7] = test system: Leishmania infantum; assay: Antileishmanial activity against Leishmania infantum promastigote assessed as reduction in parasite growth after 72 hrs by MTT assay relative to control; format: functional; parameters: scale not given: the % may be the effect or the level left

IC50 [1] [nM]	SMILES	also measured
100	O=C(N[C@@H](Cc1ccccc1)C(=O)c1cc(-c2ccccc2)on1)[C@H](Cc1ccccc1)NC(=O)N1CCOCC1	–
230	CN1CCN(C(=O)N[C@@H](Cc2ccccc2)C(=O)N[C@@H](CCc2ccccc2)C(=O)c2cc(-c3ccccc3)on2)CC1	–
4720	COc1ccc(-c2oc3ccccc3c(=O)c2O)cc1	Ki [4]: 7710 nM
50	O=C(N[C@@H](Cc1ccccc1)C(=O)c1noc(-c2ccccc2)n1)[C@H](Cc1ccccc1)NC(=O)N1CCOCC1	–
27	O=C(N[C@H](/C=C/S(=O)(=O)c1ccccc1)CCc1ccccc1)[C@H](Cc1ccccc1)NC(=O)N1CCOCC1	–
450	COC(=O)c1ccc(NC(=O)CSc2nc3ccc(Cl)cc3n2S(=O)(=O)c2cc(C)cc(C)c2)c(Cl)c1	Ki [4]: 150 nM
680	Cc1cc(C)cc(S(=O)(=O)n2c(SCC(=O)Nc3ccccc3)nc3ccccc32)c1	Ki [4]: 230 nM
540	COC(=O)c1ccc(NC(=O)CSc2nc3ccccc3n2S(=O)(=O)c2cc(C)cc(C)c2)cc1	Ki [4]: 180 nM
2060	COC(=O)c1ccc(NC(=O)CSc2nc3ccc(Cl)cc3n2Cc2cc(C)cc(C)c2)c(Cl)c1	Ki [4]: 690 nM
3700	Cc1ccc(C(=O)[C@@]23C(=O)OC(=O)[C@]2(C)N(C)[C@]2(c4ccccc4)Sc4ccccc4[C@H]32)cc1	Ki [4]: 1360 nM
190	O=C(N[C@@H](CCc1ccccc1)C(=O)c1cc(-c2ccccc2)on1)[C@H](Cc1ccccc1)NC(=O)N1CCOCC1	–
60	NC(=S)N/N=C/c1c(-c2ccccc2)[nH]c2ccccc12	–
10	NC(=O)N/N=c1\oc2ccccc2cc1-c1nc2ccccc2[nH]1	–

The remaining lines, values behind:

SMILES	IC50 [1] [nM]	also measured
CC(C)C[C@H](NC(=O)C1CC(=O)CC2C(=O)N(CCNC(=O)[C@H](Cc3ccccc3)NC(=O)[C@@H](N)Cc3c[nH]c4ccccc34)C(=O)C12)C(=O)N[C@@H](Cc1ccc(O)cc1)C(=O)N[C@@H](Cc1ccc(O)cc1)C(N)=O (stereo partly specified) (H-WF[X2]LYY-NH2)	500	–
CCOc1cc(/C=C2\SC(=O)NC2=O)ccc1O	1420	Activity [2]: 100%
O=C1NC(=O)/C(=C/c2ccc([N+](=O)[O-])cc2)S1	980	Activity [2]: 93.98%
O=C1CC(c2ccc(O)c(-c3c(O)cc4c(c3O)C(=O)CC(c3ccc(O)cc3)O4)c2)Oc2cc(O)cc(O)c21 (stereo unspecified)	2200	–
Oc1cccc(/C=N\c2cccc3c(/N=C/c4cccc(O)c4O)cccc23)c1O	–	IC50 [3]: 113000 nM
COc1ncccc1Nc1nc(C#N)nc(NC2CCCCC2)n1	1100	–
CC(C)=CCOc1ccc(C(=O)c2ccc(O)cc2)c(O)c1	2900	Ki [4]: 4300 nM
CC(C)C[C@@H](NC(=O)OC(C)(C)C)C(=O)N1CCC[C@@H]1C(=O)N1[C@H](C(=O)OCc2ccccc2)[C@H]1C(=O)OCc1ccccc1	–	IC50 [5]: 35400 nM
O=C(CN1C(=O)/C(=N\NC(=O)c2ccncc2)c2ccccc21)Nc1ccccc1	–	IC50 [3]: 62600 nM
Oc1cc(O)cc(/C=N/c2ccc(/N=C/c3ccc(O)cc3O)c(Cl)c2)c1	–	IC50 [3]: 65300 nM
CC(C)[C@H](NC(=O)c1ccc(C2CC(=O)CC3C(=O)N(CCNC(=O)[C@H](Cc4c[nH]c5ccccc45)NC(=O)[C@@H](N)CC4CCCCC4)C(=O)C32)cc1)C(=O)N[C@H](C(=O)N[C@@H](Cc1ccccc1)C(N)=O)C(C)C (stereo partly specified) (H-[Cha]W[X1]VVF-NH2)	450	–
C[C@@H]1CCC2(C(=O)O)CC[C@]3(C)C(=CCC4[C@@]5(C)CCC(=O)C(C)(C)C5CC[C@]43C)C2[C@H]1C (stereo partly specified)	3780	Ki [4]: 1260 nM
O=C1CC(c2ccc(O)cc2)Oc2cc(O)c(-c3c(O)cc(O)c4c(=O)cc(-c5ccc(O)cc5)oc34)c(O)c21 (stereo unspecified)	430	–
CC(C)[C@H](NC(=O)c1ccc(C2CC(=O)CC3C(=O)N(CCNC(=O)[C@H](CC(=O)O)NC(=O)[C@@H](N)Cc4c[nH]c5ccccc45)C(=O)C32)cc1)C(=O)N[C@@H](CO)C(=O)N[C@@H](CCCCN)C(N)=O (stereo partly specified) (H-WD[X1]VSK-NH2)	1700	–
O=C(O)c1ccccc1N/N=C/c1ccc(/C=N/Nc2ccccc2C(=O)O)cc1	–	IC50 [3]: 72000 nM
COc1ccc(-c2ccc(/C=N/NC(N)=S)o2)cc1	70	–
O=C1c2c(O)cc(O)cc2O[C@@H](c2ccc(O)cc2)[C@@H]1c1c(O)cc(O)c2c(=O)cc(-c3ccc(O)c(O)c3)oc12	5200	IC50 [6]: 95 µg/mL (≈ 171 µM)
CC(C)(F)C[C@H](N[C@@H](c1ccc(-c2ccc(S(C)(=O)=O)cc2)cc1)C(F)(F)F)C(=O)NC1(C#N)CC1 [ODANACATIB]	–	Activity [7]: 90%
CC(C)(C)OC(=O)N[C@@H](Cc1cccc(Cl)c1)C(=O)NCC#N	–	Activity [7]: 35%
CN(C)c1ccc(/C=C/C(=O)c2cc(Cl)ccc2O)cc1	3970	Ki [4]: 5470 nM
CC(C)C[C@H](NC(=O)OC(C)(C)C)C(=O)N1CCC[C@@H]1C(=O)N1[C@@H](C(=O)OCc2ccccc2)[C@@H]1C(=O)OCc1ccccc1	3800	–
CC(C)C[C@H](NC(=O)OC(C)(C)C)C(=O)N1CCC[C@@H]1C(=O)N1[C@H](C(=O)OCc2ccccc2)[C@H]1C(=O)OCc1ccccc1	–	IC50 [5]: 39600 nM
O=c1c(O)c(-c2ccc3c(c2)OCO3)oc2ccccc12	5230	Ki [4]: 7060 nM
COc1ccc2nc3cc(Cl)ccc3c(-n3c(=S)[nH][nH]c3=S)c2c1	1140	IC50 [6]: 6.57 µg/mL (≈ 17.5 µM)
